What was measured:
[1] = tested on: SMN2 minigene mRNA (SMN2-A minigene) in HEK293H cells; test: SMN2 minigene mRNA splicing RT-qPCR assay in cultured cells; assay type: cell-based, human; conditions: Homo sapiens, HEK293-H; concentration increasing full length SMN2 mRNA 1.5-fold relative to vehicle-treated cells; HEK293H cells with SMN2-A minigene, 24 hours, 7-point concentration data; read-out: EC1.5x for production of full length SMN2 mRNA
Summary of the method: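 Read-out: minigene-specific full-length (exon 7-included) SMN2 mRNA by one-step multiplex RT-qPCR, normalized to GAPDH and divided by vehicle-treated level. Stable SMN2-A minigene HEK293H cells, 24 h compound exposure, 7 concentrations in duplicate. EC1.5× = concentration raising FL mRNA 1.5-fold.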

[2] = tested on: Smn protein in SMA patient fibroblast cells (GM03813); test: Smn protein assay in cultured cells (SMN HTRF); assay type: cell-based, human; conditions: SMA patient fibroblast cells, 48 hours; for maximum fold (Fold) increase of Smn protein: 7-point concentration data, fold relative to vehicle control; for EC1.5x for Smn protein expression: 7-point concentration curve, SMN HTRF, concentration producing 1.5 times Smn protein vs DMSO vehicle control
Summary of the method: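 Read-out: HTRF 665/620 nm ratio, blank-subtracted as ΔF, then expressed as fold over DMSO vehicle. Fibroblasts from SMA patients were exposed to compounds for 48 h (7 points, 3.16-fold steps, triplicates). Values are EC1.5× and maximum fold Smn increase.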

| SMILES | melting point [°C] | EC (1.5-fold increase) [1] [µM] | maximum fold (Fold) increase of Smn protein [2] | EC1.5x for Smn protein expression [2] |
| --- | --- | --- | --- | --- |
| COc1ccc(-c2cc(=O)n3cc(N4CCNC(C)(C)C4)ccc3n2)cc1OC [Compound 7, 2-(3,4-dimethoxyphenyl)-7-(3,3-dimethylpiperazin-1-yl)-4H-pyrido[1,2-a]pyrimidin-4-one] | 138 to 140 | 0.3 to 1 | *** (a fold increase between >1.35 and ≤1.5 is indicated by three stars (***)) | – |
| COc1ccc(-c2cc(=O)n3cc(N4CCN[C@H](C)C4)ccc3n2)cc1OC [Compound 8, 2-(3,4-dimethoxyphenyl)-7-[(3R)-3-methylpiperazin-1-yl]-4H-pyrido[1,2-a]pyrimidin-4-one] | 181 to 184 | 0.1 to 0.3 | **** (a fold increase between >1.5 and ≤1.65 is indicated by four stars (****)) | ** (an EC1.5× between >1 μM and ≤3 μM is indicated by two stars (**)) |
| CCN1CCN(c2ccc3nc(-c4ccc(OC)c(OC)c4)cc(=O)n3c2)CC1 [Compound 9, 2-(3,4-dimethoxyphenyl)-7-(4-ethylpiperazin-1-yl)-4H-pyrido[1,2-a]pyrimidin-4-one] | 159 to 162 | 1 to 3 | *** (a fold increase between >1.35 and ≤1.5 is indicated by three stars (***)) | – |
| COc1ccc(-c2cc(=O)n3cc(N4CCCN(C)CC4)ccc3n2)cc1OC [Compound 11, 2-(3,4-dimethoxyphenyl)-7-(4-methyl-1,4-diazepan-1-yl)-4H-pyrido[1,2-a]pyrimidin-4-one] | 166 to 168 | 0.3 to 1 | *** (a fold increase between >1.35 and ≤1.5 is indicated by three stars (***)) | – |
| COc1ccc(-c2cc(=O)n3cc(N4CCN[C@@H](C)C4)ccc3n2)cc1 [Compound 12, 2-(4-methoxyphenyl)-7-[(3S)-3-methylpiperazin-1-yl]-4H-pyrido[1,2-a]pyrimidin-4-one] | 158 to 160 | 0.3 to 1 | *** (a fold increase between >1.35 and ≤1.5 is indicated by three stars (***)) | – |
| COc1ccc(-c2cc(=O)n3cc(N4CCN(C)CC4)ccc3n2)cc1OC [Compound 13, 2-(3,4-dimethoxyphenyl)-7-(4-methylpiperazin-1-yl)-4H-pyrido[1,2-a]pyrimidin-4-one] | 183 to 185 | 1 to 3 | ** (a fold increase between >1.2 and ≤1.35 is indicated by two stars (**)) | – |
| COc1ccc(-c2cc(=O)n3cc(N4C[C@@H](C)N[C@@H](C)C4)ccc3n2)cc1OC [Compound 14, 2-(3,4-dimethoxyphenyl)-7-[(3R,5S)-3,5-dimethylpiperazin-1-yl]-4H-pyrido[1,2-a]pyrimidin-4-one] | 182 to 187 | 1 to 3 | *** (a fold increase between >1.35 and ≤1.5 is indicated by three stars (***)) | – |
| CCCN1CCN(c2ccc3nc(-c4ccc(OC)c(OC)c4)cc(=O)n3c2)CC1 [Compound 15, 2-(3,4-dimethoxyphenyl)-7-(4-propylpiperazin-1-yl)-4H-pyrido[1,2-a]pyrimidin-4-one] | 185 to 189 | 1 to 3 | *** (a fold increase between >1.35 and ≤1.5 is indicated by three stars (***)) | – |
| COc1ccc(-c2cc(=O)n3cc(N4CCCN(C)CC4)ccc3n2)cc1 [Compound 16, 2-(4-methoxyphenyl)-7-(4-methyl-1,4-diazepan-1-yl)-4H-pyrido[1,2-a]pyrimidin-4-one] | 137 to 141 | 1 to 3 | * (A maximum fold increase of ≤1.2 is indicated by one star (*)) | – |
| O=c1cc(-c2ccc3c(c2)OCO3)nc2ccc(N3CCNCC3)cn12 [Compound 18, 2-(1,3-benzodioxol-5-yl)-7-(piperazin-1-yl)-4H-pyrido[1,2-a]pyrimidin-4-one] | 198 to 201 | 0.3 to 1 | **** (a fold increase between >1.5 and ≤1.65 is indicated by four stars (****)) | ** (an EC1.5× between >1 μM and ≤3 μM is indicated by two stars (**)) |
| CN1CCN(c2ccc3nc(-c4ccc5c(c4)OCO5)cc(=O)n3c2)CC1 [Compound 19, 2-(1,3-benzodioxol-5-yl)-7-(4-methylpiperazin-1-yl)-4H-pyrido[1,2-a]pyrimidin-4-one] | 235 to 237 | 1 to 3 | ** (a fold increase between >1.2 and ≤1.35 is indicated by two stars (**)) | – |
| C[C@@H]1CN(c2ccc3nc(-c4ccc5c(c4)OCO5)cc(=O)n3c2)CCN1 [Compound 20, 2-(1,3-benzodioxol-5-yl)-7-[(3R)-3-methylpiperazin-1-yl]-4H-pyrido[1,2-a]pyrimidin-4-one] | 195 to 197 | 1 to 3 | **** (a fold increase between >1.5 and ≤1.65 is indicated by four stars (****)) | ** (an EC1.5× between >1 μM and ≤3 μM is indicated by two stars (**)) |
| C[C@@H]1CN(c2ccc3nc(-c4ccc5c(c4)OCO5)cc(=O)n3c2)C[C@H](C)N1 [Compound 21, 2-(1,3-benzodioxol-5-yl)-7-[(3R,5S)-3,5-dimethylpiperazin-1-yl]-4H-pyrido[1,2-a]pyrimidin-4-one] | 198 to 201 | 3 to 30 | * (A maximum fold increase of ≤1.2 is indicated by one star (*)) | – |
| COc1cccc(-c2cc(=O)n3cc(N4CCNCC4)ccc3n2)c1 [Compound 22, 2-(3-methoxyphenyl)-7-(piperazin-1-yl)-4H-pyrido[1,2-a]pyrimidin-4-one] | 147 to 149 | 0.3 to 1 | *** (a fold increase between >1.35 and ≤1.5 is indicated by three stars (***)) | ** (an EC1.5× between >1 μM and ≤3 μM is indicated by two stars (**)) |
| COc1cccc(-c2cc(=O)n3cc(N4CCN(C)CC4)ccc3n2)c1 [Compound 23, 2-(3-methoxyphenyl)-7-(4-methylpiperazin-1-yl)-4H-pyrido[1,2-a]pyrimidin-4-one] | 173 to 175 | 3 to 30 | *** (a fold increase between >1.35 and ≤1.5 is indicated by three stars (***)) | – |
| COc1cccc(-c2cc(=O)n3cc(N4CCN[C@H](C)C4)ccc3n2)c1 [Compound 24, 2-(3-methoxyphenyl)-7-[(3R)-3-methylpiperazin-1-yl]-4H-pyrido[1,2-a]pyrimidin-4-one] | 164 to 166 | 1 to 3 | *** (a fold increase between >1.35 and ≤1.5 is indicated by three stars (***)) | * (An EC1.5× for Smn protein expression between >3 μM and ≤10 μM is indicated by one star (*)) |
| COc1cccc(-c2cc(=O)n3cc(N4C[C@@H](C)N[C@@H](C)C4)ccc3n2)c1 [Compound 25, 7-[(3R,5S)-3,5-dimethylpiperazin-1-yl]-2-(3-methoxyphenyl)-4H-pyrido[1,2-a]pyrimidin-4-one] | 189 to 191 | 1 to 3 | * (A maximum fold increase of ≤1.2 is indicated by one star (*)) | – |

From US11753407B2, “Compounds for treating spinal muscular atrophy” (PTC Therapeutics, Inc., priority 2012, dated 2023)
